{"source": "patent US12410174B1", "about": "“Small molecular inhibitors of sting signaling compositions and methods of use” (TYERELL IMMUNOTHERAPEUTICS INC, priority 2020, dated 2025)", "key": {"STING signaling [1]": {"system": "STING signaling", "experiment": "Luciferase live cell assay, type I IFN promoter in hTERT-pIFNβ-Glu cells after ISD transfection", "type": "cell-based, human", "settings": "hTERT-pIFNβ-Glu cells", "experimental": "Inhibition of IFNβ expression was measured by Luciferase induction at 24 hours after transfection of ISD, Mock is shown (210), ISD treatment only (220) was used as a control, according to an embodiment of the invention;\nExample 1: Identification of small molecule antagonists of STING. In the presence of cytosolic DNA species, STING becomes activated to drive the transcription of cytokines such as type I IFN. Compounds binding to STING via TSA were subsequently examined for their ability to prevent cytosolic DNA species from activating the type I interferon (IFN) promoter, using a live cell assay. This assay comprised immortalized human fibroblasts that were stably transfected with the type I IFN promoter driving luciferase as well as the CMV promoter driving SEAP (hTERT-pIFNβ-Glu). The live cell assay has previously been disclosed in PCT/JS2019/025380 entitled IFN-βETA REPORTER SYSTEM FOR IMMORTALIZED PRIMARY CELLS inventor Glen N. Barber, which was filed Apr. 2, 2018 and published as WO2019195285, and which is herein incorporated by reference in its entirety and for all purposes. The ability of the small molecules to prevent activation of the type I IFN promoter and the transcription of luciferase, but not SEAP in response to cytosolic DNA species was assessed. The activation of STING, typically by CDNs, in turn activates the transcription factors NF-κB and IRF3, both of which are required to induce the transcriptional stimulation of the Type I IFN promoter, but not the CMV promoter as IRF3 and NF-kB transcription factor binding sites are not contained in the CMV promoter. The assay identified the small molecule Compound Y1 in the first screen (HTS), where the level of luciferase was not able to activate the type I IFN promoter or induce the expression of luciferase (see Table I).\nExample 4: hTERT-BJ1 Telomerase Fibroblasts (hTERT) were originally purchased from Clontech and were cultured in 4:1 ratio of DMEM:Medium 199 supplement with 10% FBS, 4 mM L-Glutamine and 1 mM sodium pyruvate at 37° C. in a 5% CO2-humidified atmosphere. hTERT-BJ1 Telomerase Fibroblasts stably expressing the luciferase gene under the control of the interferon-beta promoter and SEAP gene under control of the CMV promoter) (hTERT-pIFNβ-Glu) were generated by the Barber laboratory.\nExample 7: Luciferase assay: hTERT-BJ1 Telomerase Fibroblasts stably expressing the luciferase gene under the control of the interferon-beta promoter and SEAP gene under control of the CMV promoter) (hTERT-pIFNβ-Glu) were generated by the Barber laboratory. Luciferase assay was performed using Secrete-Pair Dual Luminescence Assay Kit from GeneCopoeia following the manufacturer's protocol."}, "STING signaling [2]": {"system": "STING signaling", "experiment": "IFNβ ELISA in normal hTERT cells after ISD transfection", "type": "cell-based, human", "experimental": "Example 9: Interferon β Elisa analysis: Interferon β Elisa was performed using either the IFNβ human ELISA Kit from Invitrogen or the Human IFNβ ELISA Kit from PBL Interferon Source following the manufacturer's protocol."}, "STING signaling [3]": {"system": "STING signaling", "experiment": "Western blot of STING, pTBK1 and pIRF3 in hTERT cells after ISD transfection", "type": "cell-based, human", "settings": "6 hours after ISD transfection", "experimental": "(§1) Example 8: Immunoblot analysis: Equal amounts of proteins were resolved on sodium dodecyl sulfate (SDS)-Polyacrylamide gels and then transferred to polyvinylidene fluoride (PVDF) membranes (Millipore). After blocking with 5% Blocking Reagent, membranes were incubated with various primary antibodies (and appropriate secondary antibodies). The image was resolved using an enhanced chemiluminescence system ECL (Thermo Scientific) and detected by autoradiography (Kodak). Antibodies: rabbit polyclonal antibody against STING was developed in our laboratory as described previously in Ishikawa et al, 2008; other antibodies were obtained from following sources: β-actin (Sigma Aldrich), p-IRF3 (Cell Signaling), IRF3 (Santa Cruz Biotechnology), p-p65 (Cell Signaling), p65 (Cell Signaling), p-TBK1 (Cell Signaling), TBK1 (Abcam), cGAS (Cell Signaling)."}, "STING signaling [4]": {"system": "STING signaling", "experiment": "Western blot of STING, TBK1 and IRF3 phosphorylation in MEF cells", "type": "cell-based, murine", "settings": "cytosolic DNA", "experimental": "as §1"}, "[5]": {"system": "TREX1-deficient macrophages", "experiment": "qPCR of Cxcl10 in TREX1 knockout (TKO) bone marrow derived macrophages", "type": "cell-based, mouse", "settings": "TKO BMDM, compared to DMSO control", "experimental": "MEFs were obtained from E13.5 embryos by a standard procedure. Bone Marrow Derived Macro-phages (BMDM) were isolated from hind-limb femurs of 8-10 weeks old WT and Trex1 KO (TKO) mice. The hematopoietic cells from the bone marrow were cultured in complete DMEM (Invitrogen) including 10 ng/ml of Mouse Recombinant Colony-Stimulating Factor (M-CSF, R&D Systems) for 10 to 14 days.\nExample 11: qPCR total RNA were reverse-transcribed using M-MLV Reverse Transcriptase (Promega). Real-time PCR was performed using Taqman Gene Expression Assay (Applied Biosystems) for innate immune genes and inflammatory cytokines."}, "TREX1-deficient mice": {"system": "TREX1-deficient mice", "experiment": "Treatment of TREX1 knockout (TKO) mice: survival and heart histopathology", "type": "in vivo, mouse", "experimental": "Example 12: Mouse Treatment: Trex1 Hetero knockout mice (Trex1^+/−) were generated by crossing the hetero mice. Mouse genotypes from tail biopsies were determined using Real Time PCR with specific probes designed for each gene by commercial vendor (Transnetyx). Trex1 KO (TKO) mice (4-5 weeks old) were intraperitoneally injected with 25 μg Z811 per mouse in 200 μL 1% DMSO in PBS. The mice were injected three times a week for 5 months. The survival rates were evaluated.\nExample 13: Histopathology. Mice are sacrificed and the heart tissues were fixed in 10% formalin for 48 hours."}}, "note": "Entries after “also recorded” stand apart in the source; their conditions may differ.", "data": [{"compound": "N#Cc1c(NC(=O)c2ccccc2Cl)n(Cc2ccccc2)c2nc3ccccc3nc12", "note": "[Compound Y1, N-{1-benzyl-3-cyano-1H-pyrrolo[2,3-ß]quinoxalin-2-yl}-2-chlorobenzamide]", "values": [{"measurement": "inhibition of activation of the type I IFN promoter (luciferase induction)", "setting": "STING signaling [1]; 10 μM and 50 μM, ISD 3 μg/ml, 24 hours after transfection", "result": "inhibited activation of the type I IFN promoter; also recorded: exhibited inhibition of the activation of the type I IFN promoter"}, {"measurement": "inhibitory activity of the type I IFN promoter (luciferase induction)", "setting": "STING signaling [1]; 50 μM or 25 μM, in response to ISD", "result": "showed robust inhibitory activity of the type I IFN promoter"}, {"measurement": "IFNβ production (ELISA)", "setting": "STING signaling [2]", "result": "dramatically decreased IFNβ expression and production"}, {"measurement": "STING, TBK1 and IRF3 phosphorylation (Western blot)", "setting": "STING signaling [3]", "result": "robustly prevented STING phosphorylation and subsequently TBK1 and IRF3 phosphorylation; also recorded: able to prevent the phosphorylation of STING, TBK1 and IRF3"}, {"measurement": "phosphorylation of TBK1, IRF3 and STING (Western blot)", "setting": "STING signaling [4]", "result": "prevented the phosphorylation of either TBK1 or IRF3"}, {"measurement": "Cxcl10 expression / cytokine production in TREX1-deficient macrophages (qPCR)", "setting": "[5]", "result": "can repress cytokine production in TREX1-defective cells; also recorded: dramatically decreased; also recorded: inhibits TREX1 dependent Cxcl10 expression"}, {"measurement": "inflammation in the heart (H&E staining)", "setting": "TREX1-deficient mice", "result": "Less inflammation in the heart"}, {"measurement": "survival of TREX1-deficient mice", "setting": "TREX1-deficient mice; intraperitoneal, 25 μg/mouse, 5 months, compared to mock treated", "result": "survival was significantly improved over several months; also recorded: extended the life of TREX1-deficient mice"}]}]}
